Measurements taken from ChEMBL document CHEMBL1141900, “Synthesis and antibacterial activity of C2-fluoro, C6-carbamate ketolides, and their C9-oximes” (2005).
≈ marks a conversion by molar mass, not a printed value.

Legend:
Format in all cases: functional
[1] = test system: Enterococcus faecalis; test: Minimum inhibitory concentration of the compound againstEnterococcus faecalis ATCC 51299 with an erm(B)-encoded ribosomal methylase was determined
[2] = test system: Streptococcus pneumoniae; test: Minimum inhibitory concentration of the compound against erythromycin-susceptible Streptococcus pneumoniae was determined
[3] = test system: Streptococcus pneumoniae; test: Minimum inhibitory concentration of the compound against 3 […] Streptococcus pneumoniae OC4421 with an mef(A) efflux-mediated resistance was determined
[4] = test system: Staphylococcus aureus; test: Minimum inhibitory concentration of the compound against erythromycin-susceptible Staphylococcus aureus Smith OC4172 was determined
[5] = test system: Streptococcus pneumoniae; test: Minimum inhibitory concentration of the compound against 3 […] Streptococcus pneumoniae OC4051 with an erm(B)-ribosomal methylase-mediated resistance was determined
[6] = test system: Haemophilus influenzae; test: Minimum inhibitory concentration of the compound against Haemophilus influenzae OC4882 was determined

Row | Structure (SMILES) | MIC [1] [µg/mL] | MIC [2] [µg/mL] | MIC [3] [µg/mL] | MIC [4] [µg/mL] | MIC [5] [µg/mL] | MIC [6] [µg/mL]
1 | CC[C@H]1OC(=O)[C@@](C)(F)C(=O)[C@H](C)[C@@H](O[C@@H]2O[C@H](C)C[C@H](N(C)C)[C@H]2O)[C@](C)(OC(=O)NCCOCc2ccc(-c3ncccn3)cc2)C[C@@H](C)/C(=N\O)[C@H](C)[C@H]2NC(=O)O[C@@]21C | 16 (≈ 18 µM) | 0.06 (≈ 0.0676 µM) | 0.25 (≈ 0.282 µM) | 0.5 (≈ 0.564 µM) | 0.06 (≈ 0.0676 µM) | 8 (≈ 9.02 µM)
2 | CC[C@H]1OC(=O)[C@@](C)(F)C(=O)[C@H](C)[C@@H](O[C@@H]2O[C@H](C)C[C@H](N(C)C)[C@H]2O)[C@](C)(OC(=O)NC/C=C/c2ccc(-c3ccncn3)cc2)C[C@@H](C)C(=O)[C@H](C)[C@H]2NC(=O)O[C@@]21C | > 16 | 0.03 (≈ 0.0351 µM) | 0.12 (≈ 0.141 µM) | 0.25 (≈ 0.293 µM) | 0.06 (≈ 0.0703 µM) | 4 (≈ 4.68 µM)
3 | CC[C@H]1OC(=O)[C@@](C)(F)C(=O)[C@H](C)[C@@H](O[C@@H]2O[C@H](C)C[C@H](N(C)C)[C@H]2O)[C@](C)(OC(=O)NC/C=C/c2ccc(-n3cnnc3)cc2)C[C@@H](C)C(=O)[C@H](C)[C@H]2NC(=O)O[C@@]21C | > 16 | 0.06 (≈ 0.0712 µM) | 0.5 (≈ 0.593 µM) | 0.5 (≈ 0.593 µM) | 0.12 (≈ 0.142 µM) | 8 (≈ 9.49 µM)
4 | CC[C@H]1OC(=O)[C@@](C)(F)C(=O)[C@H](C)[C@@H](O[C@@H]2O[C@H](C)C[C@H](N(C)C)[C@H]2O)[C@](C)(OC(=O)NC/C=C/c2ccc(-n3cccn3)cc2)C[C@@H](C)C(=O)[C@H](C)[C@H]2NC(=O)O[C@@]21C | 8 (≈ 9.5 µM) | 0.03 (≈ 0.0356 µM) | 0.5 (≈ 0.594 µM) | 0.25 (≈ 0.297 µM) | 0.12 (≈ 0.143 µM) | 8 (≈ 9.5 µM)
5 | CC[C@H]1OC(=O)[C@@](C)(F)C(=O)[C@H](C)[C@@H](O[C@@H]2O[C@H](C)C[C@H](N(C)C)[C@H]2O)[C@](C)(OC(=O)NC/C=C/c2ccc(-c3cnccn3)cc2)C[C@@H](C)C(=O)[C@H](C)[C@H]2NC(=O)O[C@@]21C | 4 (≈ 4.68 µM) | 0.03 (≈ 0.0351 µM) | 0.06 (≈ 0.0703 µM) | 0.25 (≈ 0.293 µM) | 0.06 (≈ 0.0703 µM) | 4 (≈ 4.68 µM)
6 | CC[C@H]1OC(=O)[C@@](C)(F)C(=O)[C@H](C)[C@@H](O[C@@H]2O[C@H](C)C[C@H](N(C)C)[C@H]2O)[C@](C)(OC(=O)NC/C=C/c2cn(-c3cnccn3)cn2)C[C@@H](C)C(=O)[C@H](C)[C@H]2NC(=O)O[C@@]21C | 16 (≈ 19 µM) | 0.03 (≈ 0.0355 µM) | 0.25 (≈ 0.296 µM) | 0.25 (≈ 0.296 µM) | 0.06 (≈ 0.0711 µM) | 8 (≈ 9.48 µM)
7 | CC[C@H]1OC(=O)[C@@](C)(F)C(=O)[C@H](C)[C@@H](O[C@@H]2O[C@H](C)C[C@H](N(C)C)[C@H]2O)[C@](C)(OC(N)=O)C[C@@H](C)C(=O)[C@H](C)[C@H]2NC(=O)O[C@@]21C | > 16 | 0.12 (≈ 0.182 µM) | 2 (≈ 3.03 µM) | 1 (≈ 1.52 µM) | > 16 | 8 (≈ 12.1 µM)
8 | CC[C@H]1OC(=O)[C@@](C)(F)C(=O)[C@H](C)[C@@H](O[C@@H]2O[C@H](C)C[C@H](N(C)C)[C@H]2O)[C@](C)(OC(N)=O)C[C@@H](C)/C(=N\O)[C@H](C)[C@H]2NC(=O)O[C@@]21C | > 16 | 0.12 (≈ 0.178 µM) | 2 (≈ 2.96 µM) | 1 (≈ 1.48 µM) | 2 (≈ 2.96 µM) | 4 (≈ 5.93 µM)
9 | CC[C@H]1OC(=O)[C@@](C)(F)C(=O)[C@H](C)[C@@H](O[C@@H]2O[C@H](C)C[C@H](N(C)C)[C@H]2O)[C@](C)(OC(=O)NC/C=C/c2cncc(-c3ccccn3)c2)C[C@@H](C)C(=O)[C@H](C)[C@H]2NC(=O)O[C@@]21C | 4 (≈ 4.68 µM) | 0.03 (≈ 0.0351 µM) | 0.12 (≈ 0.141 µM) | 0.25 (≈ 0.293 µM) | 0.06 (≈ 0.0703 µM) | 8 (≈ 9.37 µM)
10 | CC[C@H]1OC(=O)[C@@](C)(F)C(=O)[C@H](C)[C@@H](O[C@@H]2O[C@H](C)C[C@H](N(C)C)[C@H]2O)[C@](C)(OC(=O)NC/C=C/c2ccc3ncccc3c2)C[C@@H](C)C(=O)[C@H](C)[C@H]2NC(=O)O[C@@]21C | 4 (≈ 4.84 µM) | 0.06 (≈ 0.0726 µM) | 0.06 (≈ 0.0726 µM) | 0.25 (≈ 0.302 µM) | 0.06 (≈ 0.0726 µM) | 4 (≈ 4.84 µM)
11 | CC[C@H]1OC(=O)[C@@](C)(F)C(=O)[C@H](C)[C@@H](O[C@@H]2O[C@H](C)C[C@H](N(C)C)[C@H]2O)[C@](C)(OC(=O)NC/C=C/c2ccc(-c3ccccn3)cc2)C[C@@H](C)C(=O)[C@H](C)[C@H]2NC(=O)O[C@@]21C | 4 (≈ 4.69 µM) | 0.06 (≈ 0.0703 µM) | 0.12 (≈ 0.141 µM) | 0.25 (≈ 0.293 µM) | 0.06 (≈ 0.0703 µM) | 4 (≈ 4.69 µM)
12 | CC[C@H]1OC(=O)[C@H](C)C(=O)[C@H](C)[C@@H](O[C@@H]2O[C@H](C)C[C@H](N(C)C)[C@H]2O)[C@](C)(OC)C[C@@H](C)C(=O)[C@H](C)[C@H]2N(CCCCn3cnc(-c4cccnc4)c3)C(=O)O[C@]12C [TELITHROMYCIN] | 16 (≈ 19.7 µM) | ≤ 0.015 | 0.12 (≈ 0.148 µM) | 0.12 (≈ 0.148 µM) | 0.06 (≈ 0.0739 µM) | 2 (≈ 2.46 µM)
13 | CC[C@H]1OC(=O)[C@@](C)(F)C(=O)[C@H](C)[C@@H](O[C@@H]2O[C@H](C)C[C@H](N(C)C)[C@H]2O)[C@](C)(OC(=O)NC/C=C/c2ccc(-c3cccnn3)cc2)C[C@@H](C)/C(=N\O)[C@H](C)[C@H]2NC(=O)O[C@@]21C | > 4 | 0.03 (≈ 0.0345 µM) | 0.25 (≈ 0.288 µM) | 0.5 (≈ 0.575 µM) | 0.06 (≈ 0.069 µM) | 2 (≈ 2.3 µM)
14 | CC[C@H]1OC(=O)[C@@](C)(F)C(=O)[C@H](C)[C@@H](O[C@@H]2O[C@H](C)C[C@H](N(C)C)[C@H]2O)[C@](C)(OC(=O)NC/C=C/c2ccc(-c3cccnn3)cc2)C[C@@H](C)C(=O)[C@H](C)[C@H]2NC(=O)O[C@@]21C | 4 (≈ 4.68 µM) | 0.03 (≈ 0.0351 µM) | 0.12 (≈ 0.141 µM) | 0.12 (≈ 0.141 µM) | 0.06 (≈ 0.0703 µM) | 4 (≈ 4.68 µM)
15 | CC[C@H]1OC(=O)[C@@](C)(F)C(=O)[C@H](C)[C@@H](O[C@@H]2O[C@H](C)C[C@H](N(C)C)[C@H]2O)[C@](C)(OC(=O)NC/C=C/c2ccc3ncccc3c2)C[C@@H](C)/C(=N\O)[C@H](C)[C@H]2NC(=O)O[C@@]21C | 2 (≈ 2.38 µM) | 0.03 (≈ 0.0356 µM) | 0.12 (≈ 0.143 µM) | 0.25 (≈ 0.297 µM) | 0.03 (≈ 0.0356 µM) | 2 (≈ 2.38 µM)
16 | CC[C@H]1OC(=O)[C@@](C)(F)C(=O)[C@H](C)[C@@H](O[C@@H]2O[C@H](C)C[C@H](N(C)C)[C@H]2O)[C@](C)(OC(=O)NC/C=C/c2ccccc2)C[C@@H](C)/C(=N\O)[C@H](C)[C@H]2NC(=O)O[C@@]21C | > 16 | 0.03 (≈ 0.0379 µM) | 0.5 (≈ 0.632 µM) | 0.25 (≈ 0.316 µM) | 0.12 (≈ 0.152 µM) | 2 (≈ 2.53 µM)
17 | CC[C@H]1OC(=O)[C@@](C)(F)C(=O)[C@H](C)[C@@H](O[C@@H]2O[C@H](C)C[C@H](N(C)C)[C@H]2O)[C@](C)(OC(=O)NCCOCc2ccc(-c3ncccn3)cc2)C[C@@H](C)C(=O)[C@H](C)[C@H]2NC(=O)O[C@@]21C | > 16 | 0.06 (≈ 0.0688 µM) | 0.12 (≈ 0.138 µM) | 0.25 (≈ 0.287 µM) | 0.12 (≈ 0.138 µM) | 8 (≈ 9.17 µM)
18 | CC[C@H]1OC(=O)[C@@](C)(F)C(=O)[C@H](C)[C@@H](O[C@@H]2O[C@H](C)C[C@H](N(C)C)[C@H]2O)[C@](C)(OC(=O)NCc2ccc(-c3ccncn3)cc2)C[C@@H](C)C(=O)[C@H](C)[C@H]2NC(=O)O[C@@]21C | 16 (≈ 19.3 µM) | 0.03 (≈ 0.0362 µM) | 0.12 (≈ 0.145 µM) | 0.12 (≈ 0.145 µM) | 0.06 (≈ 0.0725 µM) | 4 (≈ 4.83 µM)
19 | CC[C@H]1OC(=O)[C@@](C)(F)C(=O)[C@H](C)[C@@H](O[C@@H]2O[C@H](C)C[C@H](N(C)C)[C@H]2O)[C@](C)(OC(=O)NC/C=C/c2cn(-c3ncccn3)cn2)C[C@@H](C)C(=O)[C@H](C)[C@H]2NC(=O)O[C@@]21C | 8 (≈ 9.48 µM) | 0.03 (≈ 0.0355 µM) | 0.25 (≈ 0.296 µM) | 0.12 (≈ 0.142 µM) | 0.06 (≈ 0.0711 µM) | 8 (≈ 9.48 µM)
20 | CC[C@H]1OC(=O)[C@H](C)[C@@H](O[C@H]2C[C@@](C)(OC)[C@@H](O)[C@H](C)O2)[C@H](C)[C@@H](O[C@@H]2O[C@H](C)C[C@H](N(C)C)[C@H]2O)[C@](C)(O)C[C@@H](C)C(=O)[C@H](C)[C@@H](O)[C@]1(C)O [ERYTHROMYCIN] | > 16 | 0.06 (≈ 0.0818 µM) | 4 (≈ 5.45 µM) | 0.5 (≈ 0.681 µM) | > 16 | 8 (≈ 10.9 µM)
